The structures appear in SMILES notation.

One experiment deals with panel of 290 distinct kinases (321 in the larger panel), excluding mutant variants. The settings on record: asterisk: panel of 321 distinct kinases.
For the molecule `COc1cc2c(Oc3cccc(NC(=O)Nc4cc(C(C)(C)F)no4)c3)ncnc2cc1OCCN1CCOCC1` [Ex 251, 1-(3-(2-fluoropropan-2-yl)isoxazol-5-yl)-3-(3-(6-methoxy-7-(2-morpholinoethoxy)quinazolin-4-yloxy)phenyl)urea], the S35 entry was “C* (0.20 < C ≦ 0.40)”.
Still for that read-out and setting: to `COc1cc2ncnc(Oc3cccc(NC(=O)Nc4cc(C(F)(F)F)no4)c3)c2cc1OC` [Ex 254, 1-(3-(6,7-dimethoxyquinazolin-4-yloxy)phenyl)-3-(3-(trifluoromethyl)isoxazol-5-yl)urea] belongs “C* (0.20 < C ≦ 0.40)”.

The experiment is the same for the next values; noted with them: no asterisk: panel of 290 distinct kinases.
Turning to `COc1cc2ncnc(Oc3cccc(NC(=O)Nc4cnn(C(C)(C)C)c4)c3)c2cc1OC` [Ex 252, 1-(1-tert-butyl-1H-pyrazol-4-yl)-3-(3-(6,7-dimethoxyquinazolin-4-yloxy)phenyl)urea], the S35 entry is given as “C (0.20 < C ≦ 0.40)”.
On the same count and under the same terms, to `COc1cc2ncnc([S+]([O-])c3cccc(NC(=O)Nc4cc(C(C)(C)C)on4)c3)c2cc1OC` (centres unmarked) [Ex 253, 1-(5-tert-butylisoxazol-3-yl)-3-(3-(6,7-dimethoxyquinazolin-4-ylsulfinyl)phenyl)urea] belongs “C (0.20 < C ≦ 0.40)”; to `COc1cc2c(Oc3cccc(NC(=O)Nc4cc(C(C)(C)C)on4)c3)ncnc2cc1OCCCN1CCS(=O)(=O)CC1` [Ex 256, 1-(5-tert-butyl-isoxazol-3-yl)-3-(3-{7-[3-(1,1-dioxo-thiomorpholin-4-yl)-propoxy]-6-methoxy-quinazolin-4-yloxy}-phenyl)-urea], “D (D > 0.40)”; to `COc1cc2c(Oc3cccc(NC(=O)Nc4cc(C(C)(C)F)no4)c3)ncnc2cc1O` [Ex 257, 1-(3-(2-fluoropropan-2-yl)isoxazol-5-yl)-3-(3-(7-hydroxy-6-methoxyquinazolin-4-yloxy)phenyl)urea], “C (0.20 < C ≦ 0.40)”.
As to `COc1cc2ncnc(Oc3cccc(NC(=O)Nc4cc(C(C)(C)F)no4)c3)c2cc1O` [Ex 258, 1-(3-(2-fluoropropan-2-yl)isoxazol-5-yl)-3-(3-(6-hydroxy-7-methoxyquinazolin-4-yloxy)phenyl)urea], the S35 entry is on record as “C (0.20 < C ≦ 0.40)”.
Consider `COc1cc2ncnc(Oc3cccc(NC(=O)Nc4cc(C(C)(C)C(F)(F)F)on4)c3)c2cc1OC` [Ex 259, 1-(3-(6,7-dimethoxyquinazolin-4-yloxy)phenyl)-3-(5-(1,1,1-trifluoro-2-methylpropan-2-yl)isoxazol-3-yl)urea], for which the S35 result is given as “C (0.20 < C ≦ 0.40)”.
Regarding `CCOc1cc2c(Oc3cccc(NC(=O)Nc4cc(C(C)(C)C(F)(F)F)on4)c3)ncnc2cc1OC` [Ex 260, 1-(3-(6-ethoxy-7-methoxyquinazolin-4-yloxy)phenyl)-3-(5-(1,1,1-trifluoro-2-methylpropan-2-yl)isoxazol-3-yl)urea], the S35 entry was “C (0.20 < C ≦ 0.40)”.
On the same count and under the same terms, to `CCOc1cc2c(Sc3cccc(NC(=O)Nc4cc(C(C)(C)C(F)(F)F)on4)c3)ncnc2cc1OC` [Ex 262, 1-(3-(6-ethoxy-7-methoxyquinazolin-4-ylthio)phenyl)-3-(5-(1,1,1-trifluoro-2-methylpropan-2-yl)isoxazol-3-yl)urea] belongs “C (0.20 < C ≦ 0.40)”.
Consider `COc1cc2c(Oc3cccc(NC(=O)Nc4cc(C(C)(C)C(F)(F)F)on4)c3)ncnc2cc1O` [Ex 263, 1-(3-(7-hydroxy-6-methoxyquinazolin-4-yloxy)phenyl)-3-(5-(1,1,1-trifluoro-2-methylpropan-2-yl)isoxazol-3-yl)urea], for which the S35 entry is “C (0.20 < C ≦ 0.40)”.
On to `COc1cc2ncnc(Oc3cccc(NC(=O)Nc4cc(C(C)(C)C(F)(F)F)on4)c3)c2cc1O` [Ex 264, 1-(3-(6-hydroxy-7-methoxyquinazolin-4-yloxy)phenyl)-3-(5-(1,1,1-trifluoro-2-methylpropan-2-yl)isoxazol-3-yl)urea], for which the S35 entry is given as “C (0.20 < C ≦ 0.40)”.
Still for that read-out and setting: to `COc1cc2ncnc(Oc3cccc(NC(=O)Nc4cc(C(C)(C)C(F)(F)F)on4)c3F)c2cc1OC` [Ex 265, 1-(3-(6,7-dimethoxyquinazolin-4-yloxy)-2-fluorophenyl)-3-(5-(1,1,1-trifluoro-2-methylpropan-2-yl)isoxazol-3-yl)urea] belongs “C (0.20 < C ≦ 0.40)”; to `COc1cc2ncnc(Oc3cc(NC(=O)Nc4cc(C(C)(C)C(F)(F)F)on4)ccc3F)c2cc1OC` [Ex 266, 1-(3-(6,7-dimethoxyquinazolin-4-yloxy)-4-fluorophenyl)-3-(5-(1,1,1-trifluoro-2-methylpropan-2-yl)isoxazol-3-yl)urea], “C (0.20 < C ≦ 0.40)”; to `COc1cc2ncnc(Oc3cccc(NC(=O)Nc4cc(C(C)(C)C(F)(F)F)no4)c3)c2cc1OC` [Ex 267, 1-(3-(6,7-dimethoxyquinazolin-4-yloxy)phenyl)-3-(3-(1,1,1-trifluoro-2-methylpropan-2-yl)isoxazol-5-yl)urea], “C (0.20 < C ≦ 0.40)”.
Consider `COc1cc2ncnc(Sc3cccc(NC(=O)Nc4cc(C(C)(C)C(F)(F)F)no4)c3)c2cc1OC` [Ex 268, 1-(3-(6,7-dimethoxyquinazolin-4-ylthio)phenyl)-3-(3-(1,1,1-trifluoro-2-methylpropan-2-yl)isoxazol-5-yl)urea], for which the S35 result was “C (0.20 < C ≦ 0.40)”.
Consider `COc1cc2ncnc(Oc3cc(NC(=O)Nc4cc(C(C)(C)F)no4)c(F)cc3F)c2cc1OC` [Ex 269, 1-(5-(6,7-dimethoxyquinazolin-4-yloxy)-2,4-difluorophenyl)-3-(3-(2-fluoropropan-2-yl)isoxazol-5-yl)urea], for which the S35 result is on record as “D (D > 0.40)”.
Same read-out and setting: to `COc1cc2ncnc(Oc3cc(NC(=O)Nc4cc(C(C)(C)C)on4)c(F)cc3F)c2cc1OC` [Ex 270, 1-(5-tert-butylisoxazol-3-yl)-3-(5-(6,7-dimethoxyquinazolin-4-yloxy)-2,4-difluorophenyl)urea] belongs “D (D > 0.40)”.
On the same count and under the same terms, to `COc1cc2ncnc(Oc3cc(NC(=O)Nc4cc(C(F)(F)F)nn4-c4ccccc4)c(F)cc3F)c2cc1OC` [Ex 271, 1-(5-(6,7-dimethoxyquinazolin-4-yloxy)-2,4-difluorophenyl)-3-(1-phenyl-3-(trifluoromethyl)-1H-pyrazol-5-yl)urea] belongs “D (D > 0.40)”; to `COc1cc2ncnc(Oc3cc(NC(=O)Nc4cc(C(C)(C)C)nn4-c4ccc(C)cc4)c(F)cc3F)c2cc1OC` [Ex 272, 1-(3-tert-butyl-1-p-tolyl-1H-pyrazol-5-yl)-3-(5-(6,7-dimethoxyquinazolin-4-yloxy)-2,4-difluorophenyl)urea], “D (D > 0.40)”; to `COc1cc2ncnc(Oc3cc(NC(=O)Nc4cc(C(C)(C)C)nn4-c4ccccc4)c(F)cc3F)c2cc1OC` [Ex 273, 1-(3-tert-butyl-1-phenyl-1H-pyrazol-5-yl)-3-(5-(6,7-dimethoxyquinazolin-4-yloxy)-2,4-difluorophenyl)urea], “D (D > 0.40)”.
As for `COc1cc2ncnc(Oc3cccc(NC(=O)Nc4cc(C(C)(C)C)nn4-c4ccc(C)cc4)c3)c2cc1OC` [Ex 274, 1-(3-tert-butyl-1-p-tolyl-1H-pyrazol-5-yl)-3-(3-(6,7-dimethoxyquinazolin-4-yloxy)phenyl)urea], the S35 entry is on record as “D (D > 0.40)”.
`COc1cc2ncnc(Sc3cccc(NC(=O)Nc4cc(C(C)(C)C)nn4-c4ccc(C)cc4)c3)c2cc1OC` [Ex 275, 1-(3-tert-butyl-1-p-tolyl-1H-pyrazol-5-yl)-3-(3-(6,7-dimethoxyquinazolin-4-ylthio)phenyl)urea]: the S35 result is “D (D > 0.40)”.
As for `COCCOc1cc2ncnc(Oc3cccc(NC(=O)Nc4cc(C(C)(C)C)nn4-c4ccc(C)cc4)c3)c2cc1OC` [Ex 276, 1-(3-tert-butyl-1-p-tolyl-1H-pyrazol-5-yl)-3-(3-(6-methoxy-7-(2-methoxyethoxy)quinazolin-4-yloxy)phenyl)urea], the S35 entry is listed as “D (D > 0.40)”.
`COCCOc1cc2ncnc(Sc3cccc(NC(=O)Nc4cc(C(C)(C)C)nn4-c4ccc(C)cc4)c3)c2cc1OC` [Ex 277, 1-(3-tert-butyl-1-p-tolyl-1H-pyrazol-5-yl)-3-(3-(6-methoxy-7-(2-methoxyethoxy)quinazolin-4-ylthio)phenyl)urea]: the S35 entry is given as “D (D > 0.40)”.
Consider `COc1cc2ncnc(Oc3cccc(NC(=O)Nc4cccc(C(C)(C)C#N)c4)c3)c2cc1OC` [Ex 278, 1-(3-(2-cyanopropan-2-yl)phenyl)-3-(3-(6,7-dimethoxyquinazolin-4-yloxy)phenyl)urea], for which the S35 entry is reported as “C (0.20 < C ≦ 0.40)”.
As for `COc1cc2ncnc(Sc3cccc(NC(=O)Nc4cccc(C(C)(C)C#N)c4)c3)c2cc1OC` [Ex 279, 1-(3-(2-cyanopropan-2-yl)phenyl)-3-(3-(6,7-dimethoxyquinazolin-4-ylthio)phenyl)urea], the S35 result is recorded as “C (0.20 < C ≦ 0.40)”.
Still for that read-out and setting: to `COc1cc2ncnc(Oc3cccc(NC(=O)Nc4cc(C(C)(C)C)nn4-c4ccc(C)cc4C)c3)c2cc1OC` [Ex 282, 1-(3-tert-butyl-1-(2,4-dimethylphenyl)-1H-pyrazol-5-yl)-3-(3-(6,7-dimethoxyquinazolin-4-yloxy)phenyl)urea] belongs “C (0.20 < C ≦ 0.40)”; to `COCCOc1cc2ncnc(Sc3cccc(NC(=O)Nc4cc(C(C)(C)C)nn4-c4ccc(C)cc4C)c3)c2cc1OC` [Ex 283, 1-(3-tert-butyl-1-(2,4-dimethylphenyl)-1H-pyrazol-5-yl)-3-(3-(6-methoxy-7-(2-methoxyethoxy)quinazolin-4-ylthio)phenyl)urea], “C (0.20 < C ≦ 0.40)”; to `COc1cc2ncnc(Sc3cccc(NC(=O)Nc4cc(C(C)(C)C)nn4-c4ccc(C)cc4C)c3)c2cc1OC` [Ex 284, 1-(3-tert-butyl-1-(2,4-dimethylphenyl)-1H-pyrazol-5-yl)-3-(3-(6,7-dimethoxyquinazolin-4-ylthio)phenyl)urea], “C (0.20 < C ≦ 0.40)”.
Still for that read-out and setting: to `COc1cc2ncnc(Oc3cccc(NC(=O)Nc4cc(C(C)(C)C)nn4-c4cccc(C)c4)c3)c2cc1OC` [Ex 285, 1-(3-tert-butyl-1-m-tolyl-1H-pyrazol-5-yl)-3-(3-(6,7-dimethoxyquinazolin-4-yloxy)phenyl)urea] belongs “D (D > 0.40)”; to `COc1cc2ncnc(Sc3cccc(NC(=O)Nc4cc(C(C)(C)C)nn4-c4cccc(C)c4)c3)c2cc1OC` [Ex 286, 1-(3-tert-butyl-1-m-tolyl-1H-pyrazol-5-yl)-3-(3-(6,7-dimethoxyquinazolin-4-ylthio)phenyl)urea], “D (D > 0.40)”.

Source of the values: US9730937B2, “RAF kinase modulator compounds and methods of use thereof” (AMBIT BIOSCIENCES CORPORATION, priority 2008, dated 2017).
